Consider 8 molecules from publication PMC6684055 (Toxicology letters, 2019).

The test system of one series is CYP1A genes. Put plainly: Induction of CYP1A genes. The settings on record: 5 F-HepaRG cells, 24 h, MMI 200 μM; for efficacy of CYP1A genes induction relative to TCDD (100%): TCDD 5 nM.
The subject of series [1] is CYP1A1. Put plainly: Single concentration inactivation assay. It counts as biochemical. The settings on record: human, human liver microsomes, probe Luciferin-CEE.
The test system of series [2] is CYP1A1. As to the kind of experiment: Induction of CYP1A1 catalytic activity in LS180 cells. It counts as cell-based, human. The settings on record: 24 h, inverse U-shape profile.
A further series deals with human AhR. The settings on record: cited from earlier work.
For series [3], the system named is CYP1A1. As to the kind of experiment: Induction of CYP1A1 catalytic activity in primary human hepatocytes. It counts as cell-based. The settings on record: 24 h; for induction of CYP1A1 activity, concentration-response profile (in words): then luciferin-CEE 3 h.
A further series relates to CYP1A1 and CYP1A2. As to the kind of experiment: Expression of CYP1A1 and CYP1A2 mRNAs. It counts as cell-based, human. The conditions noted are these: three donors, 24 h, MMI 200 μM, TCDD 5 nM.
The test system of a further series is CYP1A2 mRNA. As to the kind of experiment: CYP1A2 mRNA expression. Format: cell-based, human. The conditions noted are these: 5 F-HepaRG cells, 24 h, TCDD 5 nM, two consecutive passages.
Series [4] in a line: Residual MMI in culture media after incubation with primary human hepatocytes. The settings on record: 24 h incubation with human hepatocytes, initial 200 μM. It counts as in vitro ADME.
In series [5] the test system is CYP1A1. The settings on record: ref Stepankova et al., 2018; cited from earlier work.
For the next series, the target named is T1, AhR (Homo sapiens, UniProt P35869).
T1 sequence (P35869 11-848): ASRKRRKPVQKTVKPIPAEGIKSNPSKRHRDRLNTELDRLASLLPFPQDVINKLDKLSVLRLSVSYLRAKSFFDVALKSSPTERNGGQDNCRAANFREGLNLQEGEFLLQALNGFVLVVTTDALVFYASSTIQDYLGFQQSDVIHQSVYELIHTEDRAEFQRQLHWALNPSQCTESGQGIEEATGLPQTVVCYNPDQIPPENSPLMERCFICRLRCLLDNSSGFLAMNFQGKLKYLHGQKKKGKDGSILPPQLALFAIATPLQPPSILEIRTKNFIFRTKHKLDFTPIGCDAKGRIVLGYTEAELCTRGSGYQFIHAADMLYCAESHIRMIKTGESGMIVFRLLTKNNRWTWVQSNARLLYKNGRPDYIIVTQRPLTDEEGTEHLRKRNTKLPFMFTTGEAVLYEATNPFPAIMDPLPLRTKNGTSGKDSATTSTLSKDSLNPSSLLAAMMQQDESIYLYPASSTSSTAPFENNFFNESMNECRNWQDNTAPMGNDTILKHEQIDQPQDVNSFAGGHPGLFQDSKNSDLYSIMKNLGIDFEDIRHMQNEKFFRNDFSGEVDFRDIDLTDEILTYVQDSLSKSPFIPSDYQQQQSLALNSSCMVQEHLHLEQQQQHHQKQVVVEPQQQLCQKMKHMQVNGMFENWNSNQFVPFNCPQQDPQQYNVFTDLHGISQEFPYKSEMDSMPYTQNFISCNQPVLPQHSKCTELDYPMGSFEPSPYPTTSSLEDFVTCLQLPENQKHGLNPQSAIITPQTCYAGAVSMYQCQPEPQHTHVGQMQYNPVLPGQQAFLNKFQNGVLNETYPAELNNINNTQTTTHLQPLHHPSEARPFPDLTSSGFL
Format: cell-based. The conditions noted are these: AZ-AHR cells, without incubation with hepatocytes.

[6] abbreviates: human hepatocytes, MMI 0.1-200 μM.

Several values for one entry are separate records, joined by “and”; a condition that tells them apart may be missing. Identical values can stand only once. Entries after “also recorded” stand apart in the source; their conditions may differ.

Regarding `Cc1cccc2[nH]ccc12` [4-methylindole], in the series with CYP1A genes, the “efficacy of CYP1A genes induction relative to TCDD (100%)” value is reported as around 100%. In the series with CYP1A1 [1], this molecule displayed an inhibition at 30 min, 200 μM of 10%. In addition, in the series with CYP1A1 [2], the “concentration at peak of CYP1A1 induction” value (“concentration at peak” below) came out at 25 µM. In the series on human AhR (ref Stepankova et al., 2018), the “efficacy as AhR agonist compared to 3-methylindole (skatole)” value is recorded as “approx. 25 times”. Moreover, the “induction of CYP1A1 activity, concentration-response profile (in words)” value (“induction of CYP1A1 activity” for short) with CYP1A1 [3] (setting [6]) is recorded as “Inverse U-shaped”.
Consider `Cc1ccc2cc[nH]c2c1` [6-methylindole], for which the “concentration at peak” value in the series with CYP1A1 [2] came out at 25 µM. Besides, the “efficacy as AhR agonist compared to 3-methylindole (skatole)” value in the series on human AhR (ref Stepankova et al., 2018) was “approx. 25 times”. Besides, in the series on CYP1A1 [3] (setting [6]), the “induction of CYP1A1 activity” value is “Inverse U-shaped”.
As to `Cc1cc2ccccc2[nH]1` [2-methylindole], the “CYP1A induction in HepaRG cells (in words)” value with CYP1A genes is “nearly inactive”. For the same molecule, the “concentration at peak” value in the series with CYP1A1 [2] was found to be 25 µM. In addition, the “activity at AhR (in words)” value in the series with human AhR (ref Stepankova et al., 2018) is “nearly inactive”. Also, the “induction of CYP1A1 activity” value in the series on CYP1A1 [3] (setting [6]) is recorded as “No induction”. In addition, the “induction of CYP1A1 and CYP1A2 mRNAs and proteins in primary human hepatocytes (in words)” value in the series on CYP1A1 and CYP1A2 is on record as “no effect”.
For the molecule `Cc1ccc2[nH]ccc2c1` [5-methylindole], the “efficacy of CYP1A genes induction relative to TCDD (100%)” value in the series on CYP1A genes was ~ 20%. The molecule further showed an inhibition at 30 min, 200 μM in the series with CYP1A1 [1] of 47%. Also, in the series on CYP1A1 [3] (setting [6]), the “induction of CYP1A1 activity” value was “Inverse U-shaped”.
For the molecule `Clc1cc2c(cc1Cl)Oc1cc(Cl)c(Cl)cc1O2` [TCDD, 2,3,7,8-tetrachlorodibenzo-p-dioxin, reference compound], the “induction of CYP1A2 mRNA” value in the series on CYP1A2 mRNA was 34 fold and 50 fold. Also, the “induction of CYP1A1 enzyme activity” value is 11 fold in the series with CYP1A1 [3] (human hepatocytes culture Hep200571, TCDD 5 nM) and 153 fold with CYP1A1 [3] (human hepatocytes culture Hep220993, TCDD 5 nM). Further, the “induction of CYP1A1 and CYP1A2 mRNAs and proteins in primary human hepatocytes (in words)” value in the series with CYP1A1 and CYP1A2 is given as “strongly induced”.
For `Cn1ccc2ccccc21` [1-methylindole], in the series on CYP1A genes, the “efficacy of CYP1A genes induction relative to TCDD (100%)” value was determined as 15%. In addition, in the series on CYP1A1 and CYP1A2, the “induction of CYP1A1 and CYP1A2 mRNAs and proteins in primary human hepatocytes (in words)” value is listed as “Modest induction”. In addition, in series [4], the “residual MMI in culture media (in words)” value was “no residual MMI was detected”.
As for `Cc1cccc2cc[nH]c12` [7-methylindole], the “CYP1A induction in LS180 intestinal cells (in words)” value in the series on CYP1A1 [5] was “modest CYP1A inducer; also recorded: weak inducer”. In the series with CYP1A genes, the “CYP1A induction in HepaRG cells (in words)” value was “modest CYP1A inducer” and the “efficacy of CYP1A genes induction relative to TCDD (100%)” value was ~ 20%. Also, at AhR, the “AhR agonist activity of parental compound (in words)” value was “weak agonist of AhR”. Also, in the series with CYP1A1 [3] (setting [6]), the “relative efficacy of CYP1A1 activity induction as compared to TCDD” value is given as ~ 2% and the “induction of CYP1A1 activity” value is “Concentration-dependent induction”. In addition, the “induction of CYP1A1 and CYP1A2 mRNAs and proteins in primary human hepatocytes (in words)” value with CYP1A1 and CYP1A2 is “strong inducer; also recorded: very strong inducer”.
Consider `Cc1c[nH]c2ccccc12` [3-methylindole], for which the “activity at human AhR (in words)” value in the series with human AhR (ref Rasmussen et al., 2016) is recorded as “partial agonist”. The “induction of CYP1A1 activity” value in the series with CYP1A1 [3] (setting [6]) is reported as “No induction”. The “induction of CYP1A1 and CYP1A2 mRNAs and proteins in primary human hepatocytes (in words)” value in the series with CYP1A1 and CYP1A2 is recorded as “Modest induction”.

One may read the inhibition as the change of the read-out against control, counted positive when it falls. Low values mean a weak effect, high ones a strong effect.
